# Experimental data: patent US9499493B2, “2,4-pyrimidinediamine compounds and their uses” (Rigel Pharmaceuticals, Inc., priority 2002, dated 2016)
# What was measured:
# [1] = test system: cultured human mast cells (CHMC); assay: CHMC low cell density IgE activation: tryptase assay; format: cell-based; details: anti-IgE
# Summary of the method: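 Degranulation is read as supernatant tryptase activity, using tryptase substrate incubated 30 min at room temperature. Before this, CHMC at low density (1000-1500 cells/well) rest 1 hr at 37° C and are triggered with anti-IgE for 30 min at 37° C.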
# [2] = test system: cultured human mast cells (CHMC); assay: CHMC low cell density ionomycin activation: tryptase assay; format: cell-based
IC50 [1] [nM],IC50 [2] [µM],Structure (SMILES)
727,> 10,"Cc1noc(COc2ccc(Nc3ncc(F)c(Nc4cccc(O)c4)n3)cc2)n1 [R935141, 5-Fluoro-N4-(3-hydroxyphenyl)-N2-[4-(3-methyl-1,2,4-oxadiazol-5-yl)methyleneoxyphenyl]-2,4-pyrimidinediamine]"
873,> 10,"Cc1noc(COc2ccc(Nc3ncc(F)c(Nc4ccc(OC(C)C)cc4)n3)cc2)n1 [R935142, 5-Fluoro-N4-(4-isopropoxyphenyl)-N2-[4-(3-methyl-1,2,4-oxadiazol-5-yl)methyleneoxyphenyl]-2,4-pyrimidinediamine]"
573,> 10,"Cc1noc(COc2ccc(Nc3ncc(F)c(Nc4ccc5c(c4)OCCO5)n3)cc2)n1 [R935143, N4-(3,4-Ethylenedioxyphenyl)-5-fluoro-N2-[4-(3-methyl-1,2,4-oxadiazol-5-yl)methyleneoxyphenyl]-2,4-pyrimidinediamine]"
630,> 10,"Cc1noc(COc2ccc(Nc3nc(Nc4ccc(OC(C)C)cc4)ncc3F)cc2)n1 [R935144, 5-Fluoro-N2-(4-isopropoxyphenyl)-N4-[4-(3-methyl-1,2,4-oxadiazol-5-yl)methyleneoxyphenyl]-2,4-pyrimidinediamine]"
3800,> 10,"COC(=O)c1cc2cc(Nc3ncc(F)c(Nc4ccc(OCc5nc(C)no5)cc4)n3)ccc2o1 [R935146, 5-Fluoro-N2-(2-methoxycarbonylbenzofura-5-yl)-N4-[4-(3-methyl-1,2,4-oxadiazol-5-yl)methyleneoxyphenyl]-2,4-pyrimidinediamine]"
1400,> 10,"Cc1noc(COc2ccc(Nc3nc(Nc4cccc(O)c4)ncc3F)cc2)n1 [R935147, 5-Fluoro-N2-(3-hydroxyphenyl)-N4-[4-(3-methyl-1,2,4-oxadiazol-5-yl)methyleneoxyphenyl]-2,4-pyrimidinediamine]"
2220,9.42,"CCOC(=O)C(C)(C)c1ccc(Nc2nc(Nc3ccc4c(c3)OCCO4)ncc2F)cc1 [R935148, N2-(3,4-Ethylenedioxyphenyl)-N4-[4-[(1-ethoxycarbonyl-1-methyl)ethyl]phenyl]-5-fluoro-2,4-pyrimidinediamine]"
1930,9.74,"CCOC(=O)C(C)(C)c1ccc(Nc2ncc(F)c(Nc3ccc(OC(C)C)cc3)n2)cc1 [R935150, N2-[4-[(1-Ethoxycarbonyl-1-methyl)ethyl]phenyl]-5-fluoro-N4-(4-isopropoxyphenyl)-2,4-pyrimidinediamine]"
505,9.32,"CCOC(=O)C(C)(C)c1ccc(Nc2ncc(F)c(Nc3cccc(O)c3)n2)cc1 [R935152, N2-[4-[(1-Ethoxycarbonyl-1-methyl)ethyl]phenyl]-5-fluoro-N4-(3-hydroxyphenyl)-2,4-pyrimidinediamine]"
256,4.66,"CCOC(=O)C(C)(C)c1ccc(Nc2nc(Nc3ccc(OCC(=O)OC)cc3)ncc2F)cc1 [R935157, N4-[4-[(1-Ethoxycarbonyl-1-methyl)ethyl]phenyl]-5-fluoro-N2-(4-methoxycarbonylmethyleneoxyphenyl)-2,4-pyrimidinediamine]"
232,4.13,"COC(=O)COc1ccc(Nc2ncc(F)c(Nc3ccc(OC(C)C)cc3)n2)cc1 [R935159, 5-Fluoro-N4-(4-isopropoxyphenyl)-N2-(4-methoxycarbonylmethyleneoxyphenyl)-2,4-pyrimidinediamine]"
269,> 10,"Fc1cnc(Nc2ccc3c(c2)OCCCO3)nc1Nc1ccc2c(c1)OCCCO2 [R935162, N2,N4-Bis(3,4-propylenedioxyphenyl)-5-fluoro-2,4-pyrimidinediamine]"
> 10000,> 10,"Fc1ccc(Nc2ccnc(Nc3ccc(F)c(Cl)c3)n2)cc1Cl [R935163, N2,N4-Bis(3-chloro-4-fluoropheny)-2,4-pyrimidinediamine]"
204,> 10,"COC(=O)c1cc(Nc2ncc(F)c(Nc3ccc(OC(C)C)cc3)n2)cn1C [R935164, 5-Fluoro-N4-(4-isopropoxyphenyl)-N2-[(N-methyl-2-methoxycarbonyl)pyrrol-4-yl]-2,4-pyrimidinediamine]"
568,> 10,"COC(=O)c1cc(Nc2nc(Nc3ccc4c(c3)OCCO4)ncc2F)cn1C [R935166, N2-(3,4-Ethylenedioxyphenyl)-5-fluoro-N4-[(N-methyl-2-methoxycarbonyl)pyrrol-4-yl]-2,4-pyrimidinediamine]"
2130,> 10,"CCOC(=O)C(C)(C)c1ccc(Nc2nc(Nc3ccc(OC(C)C)cc3)ncc2F)cc1 [R935167, N4-[4-[(1-Ethoxycarbonyl-1-methyl)ethyl]phenyl]-5-fluoro-N2-(4-isopropoxyphenyl)-2,4-pyrimidinediamine]"
999,8.01,"CCOC(=O)C(C)(C)c1ccc(Nc2nc(Nc3cccc(O)c3)ncc2F)cc1 [R935169, N4-[4-[(1-Ethoxycarbonyl-1-methyl)ethyl]phenyl]-5-fluoro-N2-(3-hydroxyphenyl)-2,4-pyrimidinediamine]"
536,> 10,"CC(C)(CO)c1ccc(Nc2ncc(F)c(Nc3cccc(O)c3)n2)cc1 [R935171, 5-Fluoro-N2-[4-(2-hydroxy-1,1-dimethylethyl)phenyl]-N4-(3-hydroxyphenyl)-2,4-pyrimidinediamine]"
1380,6.81,CCOC(=O)C(C)(C)c1ccc(Nc2nc(Nc3ccc4c(c3)OCCO4)ncc2F)cc1 [R935172]
454,> 10,"CC(C)(CO)c1ccc(Nc2nc(Nc3ccc4c(c3)OCCO4)ncc2F)cc1 [R935173, N2-(3,4-Ethylenedioxyphenyl)-5-fluoro-N4-[4-(2-hydroxy-1,1-dimethylethyl)phenyl]-2,4-pyrimidinediamine]"
889,> 10,"CC(C)(CO)c1ccc(Nc2ncc(F)c(Nc3ccc4oc(CO)cc4c3)n2)cc1 [R935177, 5-Fluoro-N2-[4-(2-hydroxy-1,1,dimethylethyl)phenyl]-N4-(2-hydroxymethylbenzofur-5-yl)-2,4-pyrimidinediamine]"
557,> 10,"OCC(O)COc1ccc(Nc2ncc(F)c(Nc3ccc4c(c3)OCCO4)n2)cc1 (centres unmarked) [R935179, N2-[4-(2,3-Dihydroxypropoxy)phenyl]-N4-(3,4-ethylenedioxypheny)-5-fluoro-2,4-pyrimidinediamine]"
124,2.47,"COC(=O)COc1ccc(Nc2ncc(F)c(Nc3ccc4c(c3)OCCCO4)n2)cc1 [R935182, 5-Fluoro-N2-[4-(methoxycarbonylmethyleneoxy)phenyl]-N4-(3,4-propylenedioxyphenyl)-2,4-pyrimidinediamine]"
729,> 10,"OCCOc1ccc(Nc2ncc(F)c(Nc3ccc4c(c3)OCCCO4)n2)cc1 [R935183, 5-Fluoro-N2-[4-(2-hydroxyethoxy)phenyl]-N4-(3,4-propylenedioxyphenyl)-2,4-pyrimidinediamine]"
605,> 10,"CNC(=O)COc1ccc(Nc2ncc(F)c(Nc3ccc4c(c3)OCCCO4)n2)cc1 [R935184, 5-Fluoro-N2-[4-(N-methylamino)carbonylmethyleneoxyphenyl]-N4-(3,4-propylenedioxyphenyl)-2,4-pyrimidinediamine]"
